Source: PubChem BioAssay AID330 (DTP/NCI, 2004)
“And” between values parts separate entries of the source, which are not always exact repeats. Equal entries are not always repeated. Toxic doses and inconclusive results are not listed. The calls were made as follows: active = survival T/C of 150% or more; inactive = T/C below 125% in these data.

Test system: P388 leukemia ip, CD2F1 mice, survival T/C
Assay: NCI In Vivo Anticancer Drug Screen. Data for tumor model P388 Leukemia (intraperitoneal) in CD2F1 (CDF1) mice
Conditions: endpoint: median survival time, higher = longer survival
Method in brief: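 Mice carrying the transplanted tumor received test compound or vehicle. Survival was recorded in each group, and the value is the treated-group measurement divided by that of the vehicle-treated control group.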

[1] = dose: 50.0 mg/kg/injection, schedule: Q01DX009 (ip), vehicle: Klucel (hydroxypropylcellulose) (HPC)
[2] = dose: 100.0 mg/kg/injection, schedule: Q01DX009 (ip), vehicle: saline with Tween-80
[3] = dose: 200.0 mg/kg/injection, schedule: Q01DX009 (ip), vehicle: saline with Tween-80
[4] = dose: 400.0 mg/kg/injection, schedule: Q01DX009 (ip), vehicle: saline with Tween-80

Measured: T/C

Cc1cc2c(c3oc(C4(C)OC4C4OC4C)cc(=O)c13)C(=O)c1c(O)c(C3CC(C)(N(C)C)C(O)C(C)O3)cc(C3CC(N(C)C)C(O)C(C)O3)c1C2=O (stereo unspecified)
inactive: dose: 0.02 mg/kg/injection, schedule: Q03HX008 (ip), vehicle: saline 122 % of control | dose: 0.02 mg/kg/injection, schedule: Q03HX016 (ip), vehicle: saline 113 % of control | dose: 0.03 mg/kg/injection, schedule: Q01DX009 (ip), vehicle: saline 95 % of control | dose: 0.03 mg/kg/injection, schedule: Q03HX008 (ip), vehicle: saline 118 % of control | dose: 0.03 mg/kg/injection, schedule: Q03HX016 (ip), vehicle: saline 109 % of control | dose: 0.06 mg/kg/injection, schedule: Q01DX005 (ip), vehicle: saline 100 % of control | dose: 0.06 mg/kg/injection, schedule: Q01DX009 (ip), vehicle: saline 104 % of control | dose: 0.06 mg/kg/injection, schedule: Q03HX008 (ip), vehicle: saline 122 % of control | dose: 0.12 mg/kg/injection, schedule: Q03HX016 (ip), vehicle: saline 113 % of control | dose: 6.25 micrograms/kg/injection, schedule: Q01DX009 (ip), vehicle: saline 123 % of control | dose: 10.0 micrograms/kg/injection, schedule: Q01DX009 (ip), vehicle: water 99 % of control | dose: 12.5 micrograms/kg/injection, schedule: Q01DX009 (ip), vehicle: saline 101 % of control
active: dose: 0.02 mg/kg/injection, schedule: Q01DX005 (ip), vehicle: saline 150 % of control | dose: 0.03 mg/kg/injection, schedule: Q04DX003 (ip), vehicle: saline 150 % of control | dose: 0.06 mg/kg/injection, schedule: Q04DX003 (ip), vehicle: saline 150 % of control | dose: 0.06 mg/kg/injection, schedule: Q08DX002 (ip), vehicle: saline 150 % of control | dose: 0.12 mg/kg/injection, schedule: Q01DX001 (ip), vehicle: saline 150 % of control

CC12CCC(c3sc(N)c(C#N)c31)C2(C)C (stereo unspecified)
inactive: dose: 12.5 mg/kg/injection, schedule: Q01DX009 (ip), vehicle: Klucel (hydroxypropylcellulose) (HPC) 114 % of control | dose: 25.0 mg/kg/injection, schedule: Q01DX009 (ip), vehicle: Klucel (hydroxypropylcellulose) (HPC) 104 % of control | [1] 104 % of control

COc1ccc2nc3cc(Cl)ccc3c(NCCCN3CCCC3)c2n1
inactive: dose: 12.5 mg/kg/injection, schedule: Q01DX009 (ip), vehicle: water 102 % of control | dose: 25.0 mg/kg/injection, schedule: Q01DX009 (ip), vehicle: water 102 % of control

COc1c(C)n(C)n(-c2ccccc2)c1=O
inactive: dose: 6.25 mg/kg/injection, schedule: Q01DX005 (ip), vehicle: saline 108 % of control | dose: 12.5 mg/kg/injection, schedule: Q01DX005 (ip), vehicle: saline 98 % of control | dose: 25.0 mg/kg/injection, schedule: Q01DX005 (ip), vehicle: saline 108 % of control | dose: 50.0 mg/kg/injection, schedule: Q01DX005 (ip), vehicle: saline 102 % of control | dose: 100.0 mg/kg/injection, schedule: Q01DX005 (ip), vehicle: saline 105 % of control | dose: 200.0 mg/kg/injection, schedule: Q01DX005 (ip), vehicle: saline 102 % of control

O=[N+]([O-])c1cnccc1Nc1ccncc1
inactive: dose: 100.0 mg/kg/injection, schedule: Q01DX001 (ip), vehicle: saline with Tween-80 100 % of control | dose: 200.0 mg/kg/injection, schedule: Q01DX001 (ip), vehicle: saline with Tween-80 100 % of control

CCCCC1NNC(CCCC)NN1 (stereo unspecified)
inactive: [1] 104 % of control | dose: 100.0 mg/kg/injection, schedule: Q01DX009 (ip), vehicle: Klucel (hydroxypropylcellulose) (HPC) 104 % of control

CS/C(=C/c1ccc2ccccc2[n+]1C)N1CCCC1
inactive: dose: 0.1 mg/kg/injection, schedule: Q01DX005 (ip), vehicle: saline 103 % of control | dose: 0.2 mg/kg/injection, schedule: Q01DX005 (ip), vehicle: saline 99 % of control | dose: 0.4 mg/kg/injection, schedule: Q01DX005 (ip), vehicle: saline 100 % of control | dose: 0.78 mg/kg/injection, schedule: Q01DX005 (ip), vehicle: saline 116 % of control | dose: 1.56 mg/kg/injection, schedule: Q01DX005 (ip), vehicle: saline 111 % of control

Cc1cc(OCCCCCCC[N+](C)(C)Cc2ccc([N+](=O)[O-])o2)c(C(C)C)cc1Cl
inactive: dose: 12.5 mg/kg/injection, schedule: Q04DX003 (ip), vehicle: saline 99 % of control | dose: 25.0 mg/kg/injection, schedule: Q04DX003 (ip), vehicle: saline 92 % of control

CN(C)/C(N)=N\c1ncccn1
inactive: dose: 12.5 mg/kg/injection, schedule: Q01DX009 (ip), vehicle: saline 94 % of control | dose: 25.0 mg/kg/injection, schedule: Q01DX009 (ip), vehicle: saline 91 % of control | dose: 50.0 mg/kg/injection, schedule: Q01DX009 (ip), vehicle: saline 91 % of control | dose: 100.0 mg/kg/injection, schedule: Q01DX009 (ip), vehicle: saline 93 % of control | dose: 200.0 mg/kg/injection, schedule: Q01DX009 (ip), vehicle: saline 90 % of control

CC1NC(CCCCCCCCCCC2=CC(CCCCCCCCCCC3CCC(O)C(C)N3)C3CCCN3C2)CCC1O (stereo unspecified)
inactive: dose: 0.93 mg/kg/injection, schedule: Q01DX005 (ip), vehicle: water 95 % of control | dose: 1.87 mg/kg/injection, schedule: Q01DX005 (ip), vehicle: water 96 % of control | dose: 3.75 mg/kg/injection, schedule: Q01DX005 (ip), vehicle: water 91 % of control and 92 % of control and 94 % of control | dose: 7.5 mg/kg/injection, schedule: Q01DX005 (ip), vehicle: water 93 % of control

O=C1NC(=O)c2ccc3c4c(ccc1c24)C(=O)NC3=O
inactive: dose: 15.5 mg/kg/injection, schedule: Q01DX009 (ip), vehicle: saline with Tween-80 95 % of control | dose: 31.0 mg/kg/injection, schedule: Q01DX009 (ip), vehicle: saline with Tween-80 95 % of control | dose: 62.0 mg/kg/injection, schedule: Q01DX009 (ip), vehicle: saline with Tween-80 91 % of control

Cc1ccc2c(c1)SP(c1ccccc1)S2 (stereo unspecified)
inactive: dose: 100.0 mg/kg/injection, schedule: Q04DX002 (ip), vehicle: saline with Tween-80 103 % of control | dose: 200.0 mg/kg/injection, schedule: Q04DX002 (ip), vehicle: saline with Tween-80 104 % of control | dose: 400.0 mg/kg/injection, schedule: Q04DX002 (ip), vehicle: saline with Tween-80 112 % of control

O=C(c1ccccc1)C1OC1c1ccccc1 (stereo unspecified)
inactive: dose: 50.0 mg/kg/injection, schedule: Q01DX009 (ip), vehicle: saline with Tween-80 104 % of control | [2] 105 % of control and 97 % of control | [3] 103 % of control and 114 % of control | [4] 109 % of control and 123 % of control | dose: 600.0 mg/kg/injection, schedule: Q01DX009 (ip), vehicle: saline with Tween-80 87 % of control

O=C(O)C1=C(O)CCN=C1
inactive: dose: 12.5 mg/kg/injection, schedule: Q01DX005 (ip), vehicle: Klucel (hydroxypropylcellulose) (HPC) 99 % of control | dose: 25.0 mg/kg/injection, schedule: Q01DX005 (ip), vehicle: Klucel (hydroxypropylcellulose) (HPC) 99 % of control | dose: 50.0 mg/kg/injection, schedule: Q01DX005 (ip), vehicle: Klucel (hydroxypropylcellulose) (HPC) 105 % of control

CC1=CC2C3C(=O)NC(=O)C3C1(C)C1C3C(=O)NC(=O)C3C21 (stereo unspecified)
inactive: dose: 60.0 mg/kg/injection, schedule: Q01DX005 (ip), vehicle: saline with Tween-80 100 % of control | dose: 120.0 mg/kg/injection, schedule: Q01DX005 (ip), vehicle: saline with Tween-80 100 % of control | dose: 240.0 mg/kg/injection, schedule: Q01DX005 (ip), vehicle: saline with Tween-80 101 % of control

CC(=O)OCC(=O)[C@@]1(O)CC[C@H]2[C@@H]3CCC4=CC(=O)CC[C@]4(C)[C@@]3(Cl)[C@@H](O)C[C@@]21C
inactive: dose: 88.0 mg/kg/injection, schedule: Q04DX003 (ip), vehicle: saline with Tween-80 123 % of control | [2] 118 % of control | dose: 132.0 mg/kg/injection, schedule: Q04DX003 (ip), vehicle: saline with Tween-80 123 % of control | [3] 90 % of control | dose: 200.0 mg/kg/injection, schedule: Q04DX003 (ip), vehicle: saline with Tween-80 114 % of control | dose: 300.0 mg/kg/injection, schedule: Q04DX003 (ip), vehicle: saline with Tween-80 123 % of control | [4] 100 % of control | dose: 400.0 mg/kg/injection, schedule: Q04DX003 (ip), vehicle: saline with Tween-80 109 % of control

Cc1cc(C(=C2C=CC(=Nc3ccc(S(=O)(=O)O)cc3)C=C2)c2ccc(Nc3ccc(S(=O)(=O)O)cc3)cc2)cc(S(=O)(=O)O)c1N
inactive: dose: 50.0 mg/kg/injection, schedule: Q01DX005 (ip), vehicle: suspension in saline 102 % of control | dose: 100.0 mg/kg/injection, schedule: Q01DX005 (ip), vehicle: suspension in saline 99 % of control | dose: 200.0 mg/kg/injection, schedule: Q01DX005 (ip), vehicle: suspension in saline 99 % of control
